Reference: paper PMC7188855, “Nucleic acid recognition and antiviral activity of 1,4-substituted terphenyl compounds mimicking all faces of the HIV-1 Rev protein positively-charged α-helix” (Scientific Reports, 2020)
Read-outs that look alike come from different tables or passages of the source.

How the values were obtained:
[1] = target: RRE subdomain IIB RNA hairpin IIBh; test: Fluorescence intensity binding to fluorescein-labelled IIBh hairpin; design: species or system HIV-1
Source text: We next determined whether the terphenyl molecules blocked the interaction between Rev34–50 and subdomain IIB by binding to the RNA and, if so, whether they recognized subdomain IIB in a manner similar to the Rev34–50 α-helix. We first evaluated subdomain IIB association by measuring changes in the fluorescence intensity of a IIBh RNA hairpin construct containing a fluorescein probe attached to unpaired loop IIB residue U23 (Fig. 1D)[21],[22]. […] However, there were significant differences among the compounds.
(§1) These experiments measured association to IIBh-23fl or TARh-8fl RNA molecules labelled with fluorescein at extrahelical loop nucleotides U23 and U8, respectively (Fig. 1D), and were carried out under two different ionic conditions in a Victor X5 plate reader, using excitation and emission wavelengths of 485 and 520 nm, respectively. We also attempted to measure association to an alternative IIBh hairpin containing 2-aminopurine instead of adenine at unpaired loop IIB residue A19[21], but all terphenyls fluoresced at the excitation wavelength of this fluorophore. IIBh-23fl or TARh-8fl (at 100 nM concentration) was equilibrated for 5 minutes after each ligand addition in a buffer containing either 10 mM sodium phosphate pH 6.6 and 0.1 mM EDTA or 10 mM HEPES pH 7.5, 200 mM KCl and 2 mM MgCl2. In addition to the TARh specificity control, the RNA and DNA specificity of the IIBh interactions was assessed by duplicating the experiments in the presence of a 10-fold molar excess (1 μM) of either tRNA^Lys or DNA duplex LTRd. The equilibrium dissociation constants Kd were determined by fitting the fluorescence intensity curves with DYNAFIT[40]. We used one-site, two independent-sites and two interacting-sites binding models for all curves, and the best model was automatically selected by model discrimination analysis, except where indicated. The final graphs were plotted with Prism. All fluorescence intensity experiments were performed at least two times for each compound and condition.

HIV-1 = test: Cellular HIV-1 infection assay (NL4.3-Ren, MT-2 cells); type: cell-based; conditions: Human immunodeficiency virus 1, MT2, 48 h post-infection
Protocol: (§2) The methodology used to perform and analyse these experiments has been reported elsewhere[7],[21],[22]. Briefly, infectious supernatants were obtained from transfection of plasmid pNL4.3-Ren on 293 T cells, MT-2 cells were infected with these supernatants in the presence of the compounds, and anti-HIV activity quantification was performed 48 h post-infection by determining luciferase activity in cell lysates compared to a non-treated control (100%). Cellular viability was evaluated in mock infected cells similarly treated with the same concentrations of compounds using the CellTiterGlo (Promega) assay.

[2] = Cellular viability (CellTiterGlo) in mock infected cells; type: cell-based; conditions: human, mock infected MT-2 cells
Protocol: as §2

[3] = target: RRE subdomain IIB-Rev34–50; test: Fluorescence anisotropy displacement of the IIBh-Rev34–50 interaction; conditions: read-out: IC50, RRE subdomain IIB-Rev34–50, 60 nM IIBh, 10 nM frevp, 100 mM KCl, 20 mM NaCl, 2 mM MgCl2
Protocol: These experiments were conducted in a Victor X5 (PerkinElmer) plate reader as described before[7],[21], using 10 nM frevp and 60 nM IIBh. […] Each fluorescence anisotropy experiment was repeated at least two times.

high-order RRE-Rev = test: EMSA of full-length RRE-Rev ribonucleoprotein formation; type: binding, HIV-1; conditions: 78 nM RRE, 1.32 μM Rev, 300 mM KCl, 1 mM MgCl2, band of high-order complexes
Source text: After the high-affinity interaction between RRE subdomain IIB and the Rev34–50 helix of the first Rev monomer is established, the RRE-Rev ribonucleoprotein is formed by the incorporation of additional Rev units binding to further sites in the RRE (Fig. 3B, right)[9],[10],[13]. Using an electrophoretic mobility shift assay (EMSA) involving full-length RRE and Rev, we also evaluated whether 1,4-terphenyl compounds were capable of interfering with the formation of the ribonucleoprotein. […] The effect was particularly prominent for high-order complexes (containing a greater number of Rev monomers), but the inhibition of low-order complexes by 1d was also detected at concentrations consistent with the IC50 value measured in the IIB-Rev34–50 displacement experiment. Compounds 1b and 3c exerted a weaker effect on the RRE-Rev complex, in agreement with the results obtained in the displacement experiments monitored by fluorescence anisotropy (Fig. 3B and Table 1).
(§3) The experiments monitoring RRE-Rev inhibition utilized 78 nM full-length RRE and 1.32 μM full-length Rev dissolved in 10 mM HEPES pH 7.5, 300 mM KCl, 1 mM MgCl2 and 0.5 mM EDTA binding buffer, and increasing concentrations of each compound up to 50 μM[21],[39]. The reactions were incubated at room temperature for 20 minutes and loaded onto 8% polyacrylamide gels with TB running buffer. Gels were run at 4 °C for 1–4 hours at 150 V, and the bands were stained with SYBR gold and quantified with Quantity One 4.1 analysis software. Experiments monitoring binding to the 58-base pair HIV-1 LTRc core segment utilized 20 nM LTRc duplex dissolved in the same binding buffer, and increasing concentrations of each compound. The reactions were similarly incubated and loaded onto 20% polyacrylamide gels with TB running buffer. The gels were run at 4 °C for 3.5 hours at 150 V, and the bands were stained and quantified as described above. The specificity of LTRc association was evaluated by duplicating the experiments in the presence of a 100-fold molar excess of DNAd duplex (28-fold base-pair molar excess). In all cases, we monitored the disappearance of the band corresponding to high-order RRE-Rev complexes or free LTRc, and 50% response RC50 values were determined with Prism by fitting the data to a sigmoidal inhibitory model: I−Imin=ImaxC/1+C/RC50 where I is the intensity of the band corresponding to LTRc or high-order RRE-Rev species at compound concentration C, Imax the best-fit value for maximum intensity, and Imin the minimum intensity obtained at the highest concentration of inhibitor. All EMSA experiments were repeated three times for each compound.

[4] = target: TARh hairpin containing the HIV-1 Tat-binding UCU bulge; test: Fluorescence intensity binding to control TARh hairpin
Source text: To evaluate the specificity of subdomain IIB recognition, we measured binding to a control TARh hairpin containing the HIV-1 Tat-binding UCU bulge[23] (Fig. 1D). […] We further assessed specificity by duplicating the IIBh-23fl association experiments in the presence of a 10-fold molar excess of tRNA^Lys or a 26-base pair LTRd DNA duplex. The binding curves of the compounds were affected by the presence of competitive tRNA^Lys and to a lesser extent by LTRd (Figs. 4A, S4 and S5 and Tables 2 and S2).
as §1

[5] = test system: LTRc, core region of the HIV-1 LTR promoter; test: EMSA of association to LTRc DNA; type: binding; conditions: 20 nM LTRc duplex; 10 mM HEPES pH 7.5, 300 mM KCl, 1 mM MgCl2, 0.5 mM EDTA
Protocol: as §3

[6] = low ionic strength, 10 mM sodium phosphate pH 6.6, 0.1 mM EDTA, two-site model, read-out: Kd,1 first-site equilibrium dissociation constant (IIBh), Table S1
[7] = low ionic strength, 10 mM sodium phosphate pH 6.6, 0.1 mM EDTA, two-site model, read-out: Kd,2 second-site equilibrium dissociation constant (IIBh), Table S1
[8] = low ionic strength, 10 mM sodium phosphate pH 6.6, uses Kd1

Compound | Kd [1, 6] | Kd [1, 7] | EC50 (HIV-1) | CC50 at 48 h [2] | IC50 [3] | IC50 (high-order RRE-Rev) | Kd ([1]; 10 mM sodium phosphate pH 6.6, 0.1 mM EDTA, two-site model, read-out: Kd (IIBh), first-site Kd1) | Kd ([1]; 10 mM sodium phosphate pH 6.6, 0.1 mM EDTA, two-site model, read-out: Kd (IIBh), second-site Kd2 (in brackets)) | Kd ([1]; 10-fold molar excess DNA duplex LTRd, 10 mM sodium phosphate pH 6.6, 0.1 mM EDTA, one-site fit, approximate, read-out: Kd (IIBh+LTRd)) | Kd ([1]; 10-fold molar excess LTRd, 10 mM HEPES pH 7.5, 200 mM KCl, 2 mM MgCl2, read-out: Kd (IIBh+LTRd), one-site or first-site Kd1, Table S2) | Kd ([1]; 10-fold molar excess tRNALys, 10 mM HEPES pH 7.5, 200 mM KCl, 2 mM MgCl2, one-site fit, approximate, read-out: Kd (IIBh+tRNA), Table S2) | Kd ([1]; 10-fold molar excess tRNALys, 10 mM sodium phosphate pH 6.6, 0.1 mM EDTA, one-site fit, approximate, read-out: Kd (IIBh+tRNA)) | Kd ([1]; higher ionic strength, 10 mM HEPES pH 7.5, 200 mM KCl, 2 mM MgCl2, read-out: Kd (IIBh), first-site Kd1, Table S2) | IIB-DNA spec., Kd(IIBh)/Kd(IIBh+LTRd) [1, 8] | IIB-tRNA spec., Kd(IIBh)/Kd(IIBh+tRNA) [1, 8] | Kd ([4]; 10 mM sodium phosphate pH 6.6, 0.1 mM EDTA, read-out: Kd (TARh), one-site or first-site Kd1) | Kd ([4]; higher ionic strength, 10 mM HEPES pH 7.5, 200 mM KCl, 2 mM MgCl2, read-out: Kd (TARh), Table S2) | association to LTRc (EMSA) [5]
COc1cc(CCCN)c(-c2cc(C)c(-c3cc(CCCN)c(OC)cc3CCCN)cc2C)cc1CCCN [Compound 2a] | 0.67 µM | 25 µM | > 100 µM | > 100 µM | > 100 µM |  |  |  |  |  |  |  |  |  |  |  |  | 
CCc1cc(-c2cc(CCCN)c(OC)cc2CCCN)c(CC)cc1-c1cc(CCCN)c(OC)cc1CCCN [Compound 2b] | 0.11 µM | 46 µM | > 100 µM | > 100 µM | > 100 µM |  |  |  |  |  |  |  |  |  |  |  |  | 
Cc1cc(-c2cc(CCN)ccc2CCN)c(C)cc1-c1ccccc1CCN [Compound 4] | 3.7 µM | 33 µM | 50 to 100 µM | > 100 µM | > 100 µM |  |  |  |  |  |  |  |  |  |  |  |  | 
COc1ccc(-c2cc(C)c(-c3cc(CCN)ccc3CCN)cc2C)cc1CCN [Compound 3b] | 5.5 µM | 22 µM | > 100 µM | > 100 µM | > 100 µM |  |  |  |  |  |  |  |  |  |  |  |  | 
COc1ccc(-c2cc(C)c(-c3cc(CCN)c(OC)cc3CCN)cc2C)cc1CCN [Compound 3a] | 8.9 µM | 36 µM | 35.5 µM | > 100 µM | > 100 µM |  |  |  |  |  |  |  |  |  |  |  |  | 
CCc1cc(-c2cc(CCN)c(OC)cc2CCN)c(CC)cc1-c1cc(CCN)c(OC)cc1CCN [Compound 1b] |  |  | > 100 µM | > 100 µM | > 100 µM | > 50 µM | 0.51 µM | 21 µM | 6.5 µM | > 50 µM | > 50 µM | 8.7 µM | > 50 µM | 0.078 | 0.059 | > 50 µM | > 50 µM | not detected
CCOc1cc(CCN)c(-c2cc(C)c(-c3cc(CCN)c(OCC)cc3CCN)cc2C)cc1CCN [Compound 1c] | 0.19 µM | 74 µM | > 100 µM | > 100 µM | > 100 µM |  |  |  |  |  |  |  |  |  |  |  |  | 
